Measured values: ChEMBL document CHEMBL3822377, “Locking PDK1 in DFG-out conformation through 2-oxo-indole containing molecules: Another tools to fight glioblastoma” (Eur J Med Chem, 2016)
Calls of active or inactive are those of the source. The calls are words filed in the database; no cut-off is given here.

Key:
[1] = target: Phosphatidylinositol 4-kinase beta (Homo sapiens) (UniProt Q9UBF8); assay: Inhibition of GST-tagged full-length human PI4K beta expressed in baculovirus system at 100 nM by adapta assay
[2] = target: Protein kinase C alpha type (Homo sapiens) (UniProt P17252); assay: Inhibition of His-tagged full-length human PRKACA expressed in Escherichia coli system at 100 nM by Z-lyte assay
[3] = target: Protein kinase C delta type (Homo sapiens) (UniProt Q05655); assay: Inhibition of full-length recombinant human PRKCD expressed in baculovirus system at 100 nM by Z-lyte assay
[4] = target: Serine/threonine-protein kinase PAK 6 (Homo sapiens) (UniProt Q9NQU5); assay: Inhibition of His-tagged full-length recombinant human PAK6 expressed in baculovirus system at 100 nM by Z-lyte assay
[5] = target: Rho-associated protein kinase 1 (Homo sapiens) (UniProt Q13464); assay: Inhibition of catalytic GST-tagged human ROCK1 expressed in baculovirus system at 100 nM by Z-lyte assay
[6] = (§1) Antiproliferative activity against human U87MG cells after 72 hrs by MTS assay; format: functional, cell-based, U-87MG ATCC; details: U-87 MG
U-87MG ATCC [7] = assay: as §1; format: functional, cell-based
[8] = target: RAC-gamma serine/threonine-protein kinase (Homo sapiens) (UniProt Q9Y243); assay: Inhibition of His-tagged full-length human AKT3 expressed in baculovirus system at 100 nM by Z-lyte assay
[9] = test system: RAF proto-oncogene serine/threonine-protein kinase (Homo sapiens), P04049 [Y340D,Y341D]; assay: Inhibition of catalytic GST-tagged human RAF1 Y340D/Y341D double mutant expressed in baculovirus system at 100 nM by Z-lyte assay
GSC = assay: Antiproliferative activity against human GSC cells at 0.001 to 1 uM after 4 days by MTS assay; format: functional, cell-based
[10] = target: Rho-associated protein kinase 2 (Homo sapiens) (UniProt O75116); assay: Inhibition of catalytic recombinant GST-tagged human ROCK2 expressed in baculovirus system at 100 nM by Z-lyte assay
[11] = target: Serine/threonine-protein kinase MARK1 (Homo sapiens) (UniProt Q9P0L2); assay: Inhibition of GST-tagged full-length recombinant human MARK1 expressed in baculovirus system at 100 nM by Z-lyte assay
[12] = target: Casein kinase I isoform gamma-1 (Homo sapiens) (UniProt Q9HCP0); assay: Inhibition of GST-tagged full-length human CSNK1G1 expressed in baculovirus system at 100 nM by Z-lyte assay
[13] = target: Protein kinase C alpha type (Homo sapiens) (UniProt P17252); assay: Inhibition of full-length human PRKCA expressed in baculovirus system at 100 nM by Z-lyte assay
U-87MG ATCC [14] = assay: Inhibition of AKT phosphorylation at Thr308 residue in human U87MG cells at 10 uM by ELISA relative to control; format: cell-based
[15] = target: T1, 3-phosphoinositide-dependent protein kinase 1 (Homo sapiens) (UniProt O15530); assay: Inhibition of PDK1 in human GSC cells assessed as reduction in AKT phosphorylation at Thr308 residue at 10 uM measured at 120 mins by ELISA relative to control; format: cell-based
T1 sequence (whole entry): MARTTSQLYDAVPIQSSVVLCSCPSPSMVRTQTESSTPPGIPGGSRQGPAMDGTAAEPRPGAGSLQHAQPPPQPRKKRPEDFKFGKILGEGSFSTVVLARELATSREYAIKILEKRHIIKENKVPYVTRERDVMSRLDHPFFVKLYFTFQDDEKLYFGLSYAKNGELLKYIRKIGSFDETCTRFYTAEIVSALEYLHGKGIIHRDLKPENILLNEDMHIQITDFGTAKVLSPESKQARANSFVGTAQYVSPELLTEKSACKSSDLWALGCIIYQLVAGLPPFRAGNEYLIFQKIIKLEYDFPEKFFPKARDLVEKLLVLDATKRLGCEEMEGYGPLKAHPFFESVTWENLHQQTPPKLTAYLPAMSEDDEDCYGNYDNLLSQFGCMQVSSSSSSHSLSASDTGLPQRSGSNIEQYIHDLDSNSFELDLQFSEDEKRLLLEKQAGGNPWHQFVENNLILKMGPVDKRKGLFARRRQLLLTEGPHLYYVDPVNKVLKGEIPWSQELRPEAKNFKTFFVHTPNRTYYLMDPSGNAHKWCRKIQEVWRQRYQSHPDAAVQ

[16] = Antiproliferative activity against human U87MG cells at 0.001 to 100 uM after 24 hrs by MTS assay; format: functional, U-87MG ATCC
[17] = target: Mitogen-activated protein kinase 9 (Homo sapiens) (UniProt P45984); assay: Inhibition of His-tagged full-length recombinant human MAPK9 expressed in baculovirus system at 100 nM by Z-lyte assay
[18] = target: Phosphatidylinositol 4,5-bisphosphate 3-kinase catalytic subunit gamma isoform (Homo sapiens) (UniProt P48736); assay: Inhibition of His-tagged full-length human PIK3CG expressed in baculovirus system at 100 nM by adapta assay
[19] = Induction of apoptosis in human GSC cells assessed as early apoptotic cells by measuring phosphatidylserine externalisation at 10 uM after 7 days by AnnexinV/FITC staining-based flow cytometry (reference value: 6.69%); format: functional
[20] = target: Cyclin-dependent kinase 1/cyclin B1 (Homo sapiens) (UniProt P06493+P14635); assay: Inhibition of His-tagged full-length human CDK1/Cyclin B expressed in baculovirus system at 100 nM by Z-lyte assay
U-87 MG = assay: Induction of apoptosis in human U87MG cells assessed as early apoptotic cells by measuring phosphatidylserine externalisation at 10 uM after 72 hrs by AnnexinV/FITC staining-based flow cytometry (reference value: 6.39%); format: functional, U-87MG ATCC
[21] = target: Dual specificity mitogen-activated protein kinase kinase 2 (Homo sapiens) (UniProt P36507); assay: Inhibition of His-tagged full-length recombinant human MAP2K2 expressed in baculovirus system at 100 nM by Z-lyte assay
[22] = target: AMP-activated protein kinase, AMPK (Homo sapiens) (UniProt P54646+O43741+P54619+Q9UGJ0+Q9Y478+Q13131+Q9UGI9); assay: Inhibition of GST/His-tagged full-length human recombinant AMPK A2/B1/G1 expressed in baculovirus system at 100 nM by Z-lyte assay
[23] = target: Ribosomal protein S6 kinase alpha-1 (Homo sapiens) (UniProt Q15418); assay: Inhibition of His-tagged full-length recombinant human RSK1 expressed in baculovirus system at 100 nM by Z-lyte assay
[24] = target: Serine/threonine-protein kinase Chk1 (Homo sapiens) (UniProt O14757); assay: Inhibition of His-tagged full-length human CHEK1 expressed in baculovirus system at 100 nM by Z-lyte assay
[25] = Induction of apoptosis in human GSC cells assessed as late apoptotic cells by measuring phosphatidylserine externalisation at 10 uM after 7 days in presence of 7-amino-actinomysin by AnnexinV/FITC staining-based flow cytometry (reference value: 4.14%); format: functional
[26] = target: Mitogen-activated protein kinase 3 (Homo sapiens) (UniProt P27361); assay: Inhibition of GST-tagged full-length recombinant human MAPK3 expressed in baculovirus system at 100 nM by Z-lyte assay

Sequence of Dual specificity mitogen-activated protein kinase kinase 2 (Homo sapiens) (P36507 whole entry): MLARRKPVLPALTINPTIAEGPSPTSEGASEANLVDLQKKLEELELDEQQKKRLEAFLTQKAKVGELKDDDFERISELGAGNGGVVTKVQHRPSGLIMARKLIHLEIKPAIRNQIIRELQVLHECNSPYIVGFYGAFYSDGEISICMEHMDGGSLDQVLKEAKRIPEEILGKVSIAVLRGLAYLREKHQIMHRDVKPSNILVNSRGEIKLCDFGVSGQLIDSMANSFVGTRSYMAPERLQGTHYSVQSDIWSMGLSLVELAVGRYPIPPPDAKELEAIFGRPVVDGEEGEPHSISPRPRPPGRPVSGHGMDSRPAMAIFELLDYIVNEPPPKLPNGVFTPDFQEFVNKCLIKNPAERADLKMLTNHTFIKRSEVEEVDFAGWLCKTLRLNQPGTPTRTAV
Sequence of Rho-associated protein kinase 2 (Homo sapiens) (O75116 whole entry, looked up): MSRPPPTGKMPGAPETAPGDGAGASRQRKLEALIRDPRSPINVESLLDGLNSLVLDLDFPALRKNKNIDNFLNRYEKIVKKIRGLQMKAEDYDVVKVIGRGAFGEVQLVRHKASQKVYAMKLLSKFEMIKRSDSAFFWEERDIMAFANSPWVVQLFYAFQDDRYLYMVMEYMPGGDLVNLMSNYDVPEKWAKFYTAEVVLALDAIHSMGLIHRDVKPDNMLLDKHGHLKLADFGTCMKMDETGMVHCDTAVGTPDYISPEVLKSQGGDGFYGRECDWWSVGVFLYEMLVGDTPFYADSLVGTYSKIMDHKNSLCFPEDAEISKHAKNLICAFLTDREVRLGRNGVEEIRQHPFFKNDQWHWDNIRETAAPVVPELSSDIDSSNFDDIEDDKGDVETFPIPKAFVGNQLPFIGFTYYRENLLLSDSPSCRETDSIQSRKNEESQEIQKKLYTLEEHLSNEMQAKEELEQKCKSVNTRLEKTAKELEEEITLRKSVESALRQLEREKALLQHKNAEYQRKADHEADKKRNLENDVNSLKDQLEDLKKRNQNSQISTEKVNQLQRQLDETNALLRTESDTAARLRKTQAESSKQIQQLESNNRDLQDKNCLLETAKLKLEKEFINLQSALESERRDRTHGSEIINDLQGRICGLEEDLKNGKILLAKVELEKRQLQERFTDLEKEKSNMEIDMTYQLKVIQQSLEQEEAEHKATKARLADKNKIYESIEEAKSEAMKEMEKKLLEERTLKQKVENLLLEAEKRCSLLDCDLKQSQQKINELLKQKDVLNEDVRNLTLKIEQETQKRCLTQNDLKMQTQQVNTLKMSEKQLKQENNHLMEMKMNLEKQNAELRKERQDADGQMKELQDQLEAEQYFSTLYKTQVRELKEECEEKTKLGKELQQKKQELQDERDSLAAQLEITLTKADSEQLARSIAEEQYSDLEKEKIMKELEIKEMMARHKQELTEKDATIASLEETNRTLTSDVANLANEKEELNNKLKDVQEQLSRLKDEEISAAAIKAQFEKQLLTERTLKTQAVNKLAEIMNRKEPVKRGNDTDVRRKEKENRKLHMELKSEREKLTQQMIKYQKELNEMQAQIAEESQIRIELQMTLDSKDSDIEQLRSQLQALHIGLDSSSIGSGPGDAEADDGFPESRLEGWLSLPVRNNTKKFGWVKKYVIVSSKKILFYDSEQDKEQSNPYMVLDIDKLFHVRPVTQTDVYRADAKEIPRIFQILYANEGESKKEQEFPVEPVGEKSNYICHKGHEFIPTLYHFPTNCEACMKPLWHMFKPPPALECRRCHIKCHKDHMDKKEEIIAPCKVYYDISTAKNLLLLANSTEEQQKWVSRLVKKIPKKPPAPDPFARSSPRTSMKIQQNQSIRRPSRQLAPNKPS
Sequence of Casein kinase I isoform gamma-1 (Homo sapiens) (Q9HCP0 whole entry, looked up, canonical isoform): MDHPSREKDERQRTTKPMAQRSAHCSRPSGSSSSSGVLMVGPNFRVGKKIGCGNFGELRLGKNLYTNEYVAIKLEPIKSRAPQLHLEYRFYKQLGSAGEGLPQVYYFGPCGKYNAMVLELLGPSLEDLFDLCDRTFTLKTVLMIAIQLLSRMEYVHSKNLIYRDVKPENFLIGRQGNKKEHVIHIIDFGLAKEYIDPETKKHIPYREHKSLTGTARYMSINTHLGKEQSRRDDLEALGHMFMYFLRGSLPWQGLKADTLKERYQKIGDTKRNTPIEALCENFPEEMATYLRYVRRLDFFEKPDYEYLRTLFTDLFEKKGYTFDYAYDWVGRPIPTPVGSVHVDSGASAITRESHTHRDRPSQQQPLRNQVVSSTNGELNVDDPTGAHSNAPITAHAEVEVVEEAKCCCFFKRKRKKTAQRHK
Sequence of Rho-associated protein kinase 1 (Homo sapiens) (Q13464 2-1354 limits assumed): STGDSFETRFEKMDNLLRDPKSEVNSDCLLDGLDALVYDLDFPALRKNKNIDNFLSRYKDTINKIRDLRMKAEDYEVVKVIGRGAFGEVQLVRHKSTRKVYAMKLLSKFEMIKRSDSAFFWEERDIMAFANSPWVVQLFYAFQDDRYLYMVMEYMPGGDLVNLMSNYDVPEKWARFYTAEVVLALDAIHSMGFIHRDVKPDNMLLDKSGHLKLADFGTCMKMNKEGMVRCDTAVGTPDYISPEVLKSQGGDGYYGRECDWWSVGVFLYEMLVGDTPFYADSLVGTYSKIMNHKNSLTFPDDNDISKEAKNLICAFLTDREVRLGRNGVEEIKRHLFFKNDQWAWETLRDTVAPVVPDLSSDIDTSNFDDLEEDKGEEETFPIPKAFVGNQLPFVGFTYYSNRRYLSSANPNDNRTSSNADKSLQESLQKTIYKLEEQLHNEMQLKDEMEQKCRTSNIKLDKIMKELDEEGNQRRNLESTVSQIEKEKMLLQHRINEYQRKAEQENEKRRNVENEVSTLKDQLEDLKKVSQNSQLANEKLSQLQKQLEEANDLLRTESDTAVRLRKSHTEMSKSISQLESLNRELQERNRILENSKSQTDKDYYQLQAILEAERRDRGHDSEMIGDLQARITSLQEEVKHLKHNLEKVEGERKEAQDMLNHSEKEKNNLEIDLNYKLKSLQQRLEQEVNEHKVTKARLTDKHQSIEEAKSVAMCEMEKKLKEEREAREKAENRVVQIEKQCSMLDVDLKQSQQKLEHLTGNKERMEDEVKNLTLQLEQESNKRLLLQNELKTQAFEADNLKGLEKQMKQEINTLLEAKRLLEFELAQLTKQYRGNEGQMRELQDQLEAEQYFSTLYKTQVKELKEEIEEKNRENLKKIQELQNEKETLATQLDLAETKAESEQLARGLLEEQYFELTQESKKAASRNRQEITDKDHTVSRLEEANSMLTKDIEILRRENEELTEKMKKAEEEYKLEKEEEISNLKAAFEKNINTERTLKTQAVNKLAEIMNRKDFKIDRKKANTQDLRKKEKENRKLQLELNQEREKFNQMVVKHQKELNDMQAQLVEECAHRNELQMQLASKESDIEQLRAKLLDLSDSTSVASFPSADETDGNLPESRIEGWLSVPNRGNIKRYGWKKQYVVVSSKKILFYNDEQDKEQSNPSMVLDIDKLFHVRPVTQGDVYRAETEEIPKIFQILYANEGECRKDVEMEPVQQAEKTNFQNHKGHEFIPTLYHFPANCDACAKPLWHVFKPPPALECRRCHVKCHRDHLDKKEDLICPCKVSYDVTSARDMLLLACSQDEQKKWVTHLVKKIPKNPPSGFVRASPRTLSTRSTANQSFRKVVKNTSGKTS
Sequence of RAC-gamma serine/threonine-protein kinase (Homo sapiens) (Q9Y243 whole entry): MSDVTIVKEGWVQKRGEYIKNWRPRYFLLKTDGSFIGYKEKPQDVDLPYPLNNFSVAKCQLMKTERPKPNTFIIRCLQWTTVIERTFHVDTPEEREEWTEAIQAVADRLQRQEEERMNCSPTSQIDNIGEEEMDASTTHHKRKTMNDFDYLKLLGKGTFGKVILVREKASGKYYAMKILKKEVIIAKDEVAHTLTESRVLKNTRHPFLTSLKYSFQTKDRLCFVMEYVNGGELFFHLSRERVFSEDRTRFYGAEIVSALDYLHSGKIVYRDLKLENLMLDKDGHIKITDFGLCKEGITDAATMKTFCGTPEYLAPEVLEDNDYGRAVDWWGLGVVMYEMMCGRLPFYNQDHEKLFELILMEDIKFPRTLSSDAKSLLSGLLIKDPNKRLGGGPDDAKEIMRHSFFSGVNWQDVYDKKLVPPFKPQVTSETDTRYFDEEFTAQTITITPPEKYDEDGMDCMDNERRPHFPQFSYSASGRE

Structure (SMILES): O=C(CNC(=O)c1cccn(Cc2ccc(F)c(F)c2)c1=O)Nc1ccc2c(c1)/C(=C/c1cnc[nH]1)C(=O)N2
- inhibition [1]: 4%
- inhibition [2]: -5%
- inhibition [3]: -7%
- inhibition [4]: -4%
- inhibition [5]: -7%
- IC50 [6]: 450 nM
- inhibition (U-87MG ATCC [7]): Dose-dependent effect
- inhibition [8]: 2%
- inhibition [9]: 10%
- Activity (GSC): Active
- inhibition [10]: 2%
- inhibition [11]: 17%
- inhibition [12]: 3%
- inhibition [13]: 0%
- inhibition (U-87MG ATCC [14]): Dose-dependent effect
- inhibition [15]: 80.4%
- Imax [16]: 41%
- inhibition [17]: -1%
- inhibition [18]: 2%
- Activity [19]: 16.15%
- inhibition [20]: 6%
- Activity (U-87 MG): 17.3%
- inhibition [21]: 9%
- inhibition [22]: 10%
- inhibition [23]: 2%
- inhibition [24]: 6%
- Activity [25]: 22.7%
- inhibition [26]: -3%
